In publication PMC4849654, “A High-Throughput Cell-Based Screen Identified a 2-[(E)-2-Phenylvinyl]-8-Quinolinol Core Structure That Activates p53” (PLoS ONE, 2016):

Columns and labels:
C33a cells [1] = test: Cell viability (Cell Titer Glo), C33a; assay type: cell-based
Method: (§1) For the viability assays, 20,000 C33a, HeLa, or siHA cells were plated in white 96 well flat bottom plates. The cells were treated with compounds at concentrations from 0.5 to 30 μM for 48 hrs. After incubation, Cell Titer Glo (Promega) was added to the cells and luminescence read in a Tecan II plate reader. For annexin V and PI staining, 500,000 C33a cells were treated with inhibitor for 24 hrs. The cells were stained with Annexin V-FITC and PI according to eBioscience manufacturer’s instructions and analyzed by flow cytometry.

siHA cells = test: Cell viability (Cell Titer Glo), siHA; assay type: cell-based; settings: 48h
Method: as §1

p21, BAX and FAS = test: p53 target gene expression (p21, BAX, FAS) by qRT-PCR; assay type: cell-based; settings: HeLa cells, 8h
Excerpt: (§2) RNA from C33a and HeLa was isolated by Trizol and reverse transcribed using the first strand synthesis kit from NEB. Primers for p53, GAPDH and PUMA were used for quantitative real-time PCR (qRT-PCR). Primer sequences include: PUMA (forward primer: CTCAACGCACAGTACGAG and reverse primer: […]), FAS (forward primer: TCTGCCATAAGCCCTGT and reverse primer: GTCTGTGTACTCCTTCCCT), p21 (forward primer: […] and reverse primer: […]), and BAX (forward primer: […] and reverse primer: […]). ΔΔCt values were determined for PUMA using GAPDH to normalize data. Bio-rad SYBR green was used for the amplification and detection of the PCR products on an iCycler (Bio-rad).

p53 = molecular target: T1, p53 (Homo sapiens, UniProt P04637, R273C); test: Nuclear/cytoplasmic fractionation and Western analysis of p53; assay type: cell-based; settings: C33a cells, 6 hrs, Western
T1 construct: endogenous in cells; host or cells: C33a
Method: For nuclear/cytoplasmic fractionation, 1 × 10^7 C33a cells were treated with 30 μM compound for 6 hrs. The cells were washed with PBS and lysed in 1000 μL of cytoplasmic extraction buffer (10 mM KCl, 10 mM HEPES, pH 7.9, 0.1 mM EDTA, 1 mM dithiothreitol) and incubated on ice for 20 min. 50 μL of 10% NP-40 was added to each lysate, vortexed and then centrifuged at 12,000 × g for 10 min. The cytosolic fraction was collected and the pellet containing the nuclei suspended in 50 μL of nuclear extraction buffer (0.4 M NaCl, 20 mM HEPES, pH 7.9, 1 mM EDTA). The nuclear fraction was incubated for 30 min on ice. The samples were spun at 14,000 × g for 10 min and the supernatants were collected. To concentrate the cytoplasmic fraction, 500 μL methanol, and 200 μL chloroform were added and the samples were vortexed, centrifuged for 10 min at 14,000 × g, and the upper and lower layer were discarded. The solid interphase was collected and suspended in 50 μL of lysis buffer. Equal cell equivalents were loaded on a gel and electrophoresed. For whole cell lysates, C33a cells were lysed with a modified RIPA buffer and subjected to SDS-PAGE electrophoresis. The gels were transferred to nitrocellulose and blots probed with antibodies for p53 (Santa Cruz, antibody FL-303), lamin A/C, and calnexin (Santa Cruz Biotechnology).

[2] = tested on: proteasome trypsin-like activity; test: Proteasome-Glo trypsin-like activity; assay type: cell-based; settings: C33a cells, 2 hrs, 10 μM or 30 μM
p53-Luc = test: In vitro E6 degradation assay (recombinant E6 with p53-Luc lysates); assay type: biochemical; settings: 50 ng recombinant E6, 10 μM compound, C33a lysates, 6 hours
Method: For the in vitro assay, E6 was cloned into the pMAL vector in frame with the maltose binding protein. The E6 was expressed in bacteria and purified on amylose column. C33a cells were transfected with p53-Luc and incubated overnight. 50 ng recombinant E6 was incubated with 10 μM compound and C33a lysates for 6 hours at 30 degrees. We measured luciferase activity after 30 minutes. For the trypsin and chymotrypsin assay, C33a cells were incubated for 2 hours with the indicated compounds at 10 μM and assessed for chymotrypsin and trypsin activity using Proteasome-Glo assay (Promega). For the in vivo degradation assay, C33a cells expressing Ad-TE6 and Ad-p53 or expressing Ad-TE7 and Ad-Rb-Ren were treated for 8 hours with compounds. After incubation, cells were lysed and luciferase activity measured and p53 levels measured by Western blot.

MCF7 cells = test: Cell viability, MCF7; assay type: cell-based; settings: MCF7, wild type p53
C33a cells [3] = test: Cell cycle distribution by PI staining; assay type: cell-based
HeLa cells = test: Cell viability (Cell Titer Glo), HeLa; assay type: cell-based
Method: as §1

C33a cells [4] = test: Annexin V/PI staining by flow cytometry; assay type: cell-based
Method: as §1

PUMA = PUMA transcription by qRT-PCR; assay type: cell-based; settings: 30 μM, 8h
Excerpt: as §2

SQ20B cells = test: Cell viability, SQ20B; assay type: cell-based; settings: mutant p53

COc1ccc(/C=C/c2ccc3cccc(O)c3n2)cc1OC [compound 4]
IC50 (C33a cells [1]; C33a cells, 48 hrs, Cell Titer Glo): 2.3 µM | cell viability at 30 μM (C33a cells [1]; C33a, 30 μM, 48h): decreased viability | cell viability (Fig 5D) (C33a cells [1]; C33a, mutant p53): decreased viability | cell viability at 30 μM (siHA cells): decreased viability | expression of p21, BAX and FAS (p21, BAX and FAS): induced expression | nuclear accumulation of p53 in nuclear fraction compared to vehicle (p53): higher levels of nuclear accumulation of p53 | trypsin-like proteasome activity [2]: did not significantly reduce | restoration of p53 levels in vitro (p53-Luc): restored p53 levels in vitro to similar levels as the proteasome inhibitor MG132 | cell viability (Fig 5D) (MCF7 cells): decreased viability | cell cycle distribution (C33a cells [3]): normal cell cycle distribution | cell viability (Fig 5D) (HeLa cells; HeLa): decreased viability | IC50 (HeLa cells; HeLa cells, 48 hrs, Cell Titer Glo): 4.5 µM | cell viability at 30 μM (HeLa cells; HeLa, 30 μM, 48h): decreased viability | apoptotic and necrotic cells (C33a cells [4]): increased both the number of apoptotic and necrotic cells | PUMA transcription upregulation (PUMA; C33a cells): 2.76±0.29 fold | PUMA transcription upregulation (PUMA; HeLa cells): 2.04±0.85 fold | cell viability (Fig 5D) (SQ20B cells): decreased viability
